Laboratory results as given in article PMC12108418, “Broad-Spectrum Gramicidin S Derivatives with Potent Activity Against Multidrug-Resistant Gram-Negative ESKAPE Pathogens” (Antibiotics, 2025).
≈ marks a conversion by molar mass, not a printed value. Where two headings read alike, the source gives them in different places. Square brackets hold non-standard residues; d marks the D form. Peptide text beside a SMILES is read from it. Tle = CC(C)(C)[C@H](N)C(=O)O; Orn = NCCC[C@H](N)C(=O)O; Abu = CC[C@H](N)C(=O)O

Tests used:
[1] = tested on: Klebsiella pneumoniae (ATCC 33495); assay type: cell-based; details: ATCC 33495
Experimental: (§1) The antibacterial efficacy of peptides was assessed using the broth microdilution method in accordance with Clinical and Laboratory Standards Institute (CLSI) guidelines (M07-A10, 2015 [33]). The minimum inhibitory concentrations (MICs) were determined against Escherichia coli (ATCC 25922), Klebsiella pneumoniae (ATCC 33495), Pseudomonas aeruginosa (ATCC 27853), Acinetobacter baumannii (ATCC 19606), and Staphylococcus aureus (ATCC 29213 and ATCC USA300). Bacterial suspensions were standardised to 5 × 10^4 colony-forming units (CFUs)/well in cation-adjusted Mueller–Hinton broth (CAMHB). Peptides were dissolved in 25% DMSO and serially diluted two-fold across 96-well plates, reaching final concentrations ranging from 256 to 0.125 µg/mL. The wells were inoculated, ensuring a final volume of 100 µL per well, with a DMSO concentration of 1% (v/v) to minimise solvent interference. […] Vancomycin was used as the positive control for S. aureus. Polymyxin B served as the positive control for Gram-negative bacteria. CAMHB with 1% (v/v) DMSO (without peptides) was used as the negative control. All experiments were performed in triplicate (n = 3). Bacterial isolates were stored in tryptone soy broth with 30% glycerol at −80 °C for long-term preservation.

[2] = tested on: Escherichia coli (ATCC 25922); assay type: cell-based
Experimental: as §1

[3] = tested on: Acinetobacter baumannii (ATCC 19606); assay type: cell-based
Experimental: as §1

[4] = tested on: Pseudomonas aeruginosa (ATCC 27853); assay type: cell-based
Experimental: as §1

[5] = Analytical RP-HPLC retention time as measure of hydrophobicity; assay type: physicochemical; details: measure of global hydrophobicity, Phenomenex Kinetex 2.6 µm C18 (150 × 4.6 mm), 0.7 mL/min, ACN/TFA (100:0.0008) and water/TFA (100:0.001)
Experimental: Peptide purification was carried out via preparative RP-HPLC on an Agilent 1260 Infinity II system (Santa Clara, CA, USA) equipped with a 21.2 × 150 mm Agilent ZORBAX Eclipse Plus C18 column, operating at a flow rate of 25 mL/min. The mobile phase consisted of acetonitrile containing 0.0008% trifluoroacetic acid (v/v) as the organic phase and water with 0.001% TFA as the aqueous phase. […] Analytical HPLC analysis was performed on a Hewlett-Packard Series 1100 instrument using a Phenomenex (Torrance, CA, USA) Kinetex C18 column (150 mm × 4.6 mm, 2.6 µm particle size), under identical solvent conditions, to confirm purity.
HRMS of peptide 1. […] HRMS of peptide 2. […] HRMS of peptide 3. […] HRMS of peptide 4. […] HRMS of peptide 5. […] HRMS of peptide 6. […] HRMS of peptide 7. […] HRMS of peptide 8. […] HRMS of peptide 9. […] HRMS of peptide 10. […] HRMS of peptide 11. […] HRMS of peptide 12. […] HRMS of peptide 13. […] HRMS of peptide 14. […] HRMS of peptide 15. […] HRMS of peptide 16. […] HRMS of peptide 17. […] HRMS of peptide 18. […] HRMS of peptide 19.

[6] = broth microdilution in CAMHB, 5 × 10^4 CFU/well, 1% DMSO, 37 °C, 16–20 h, 256 to 0.125 µg/mL, triplicate (n = 3)

| MIC K. pneumonia ATCC 33495 [1] [µg/mL] | MIC E. coli ATCC 25922 ([2]; ATCC 25922) [µg/mL] | MIC A. baumannii ATCC 19606 ([3]; ATCC 19606) [µg/mL] | MIC P. aeruginosa ATCC 27853 ([4]; ATCC 27853) [µg/mL] | RP-HPLC retention time tR [5] [min] | MIC E. coli ATCC 25922 [2, 6] [µg/mL] | MIC A. baumannii ATCC 19606 [3, 6] [µg/mL] | MIC P. aeruginosa ATCC 27853 [4, 6] [µg/mL] | Compound |
| --- | --- | --- | --- | --- | --- | --- | --- | --- |
| 32 (≈ 27.2 µM) | 16 (≈ 13.6 µM) | 4 (≈ 3.39 µM) | 16 (≈ 13.6 µM) | 17.15 | – | – | – | CC(C)C[C@@H]1NC(=O)[C@H](CCCN)NC(=O)[C@H](C(C)(C)C)NC(=O)[C@@H]2CCCN2C(=O)[C@@H](Cc2ccccc2)NC(=O)[C@H](CC(C)C)NC(=O)[C@H](CCCN)NC(=O)[C@H](C(C)(C)C)NC(=O)[C@@H]2CCCN2C(=O)[C@@H](CCCNC(=N)N)NC1=O [Peptide 19] (cyclo(L[dF]P[Tle][Orn]L[dR]P[Tle][Orn])) |
| 32 (≈ 25.8 µM) | 16 (≈ 12.9 µM) | 8 (≈ 6.45 µM) | 32 (≈ 25.8 µM) | – | – | – | – | CC(C)C[C@@H]1NC(=O)[C@H](CCCN)NC(=O)[C@H](C(C)C)NC(=O)[C@@H]2CCCN2C(=O)[C@@H](CCCNC(=N)N)NC(=O)[C@H](CC(C)C)NC(=O)[C@H](CCCN)NC(=O)[C@H](C(C)C)NC(=O)[C@H](Cc2c[nH]c3ccccc23)NC(=O)[C@@H](Cc2ccccc2)NC1=O [Peptide 10] (cyclo(L[dF]WV[Orn]L[dR]PV[Orn])) |
| >256 | – | – | >256 | – | > 256 | > 256 | – | CC(C)C[C@@H]1NC(=O)[C@H](CCCN)NC(=O)[C@H](C(C)C)NC(=O)[C@H](Cc2c[nH]c3ccccc23)NC(=O)[C@@H](Cc2c[nH]c3ccccc23)NC(=O)[C@H](CC(C)C)NC(=O)[C@H](CCCN)NC(=O)[C@H](C(C)C)NC(=O)[C@H](Cc2c[nH]c3ccccc23)NC(=O)[C@@H](Cc2ccccc2)NC1=O [Peptide 5] (cyclo(L[dF]WV[Orn]L[dW]WV[Orn])) |
| >256 | 256 (≈ 208 µM) | 64 (≈ 52 µM) | >256 | – | – | – | – | CC(C)C[C@@H]1NC(=O)[C@H](CCCN)NC(=O)[C@H](C(C)C)NC(=O)[C@@H]2CCCN2C(=O)[C@@H](Cc2ccccc2)NC(=O)[C@H](CC(C)C)NC(=O)[C@H](CCCN)NC(=O)[C@H](C(C)C)NC(=O)[C@H](Cc2c[nH]c3ccccc23)NC(=O)[C@@H](Cc2ccccc2)NC1=O [Peptide 2] (cyclo(L[dF]PV[Orn]L[dF]WV[Orn])) |
| 16 (≈ 12.9 µM) | – | 8 (≈ 6.45 µM) | 32 (≈ 25.8 µM) | – | 8 (≈ 6.45 µM) | – | – | CC(C)C[C@@H]1NC(=O)[C@H](CCCN)NC(=O)[C@H](C(C)C)NC(=O)[C@@H]2CCCN2C(=O)[C@@H](Cc2ccccc2)NC(=O)[C@H](CC(C)C)NC(=O)[C@H](CCCN)NC(=O)[C@H](C(C)C)NC(=O)[C@H](Cc2c[nH]c3ccccc23)NC(=O)[C@@H](CCCNC(=N)N)NC1=O [Peptide 8] (cyclo(L[dF]PV[Orn]L[dR]WV[Orn])) |
| 32 (≈ 27.2 µM) | 32 (≈ 27.2 µM) | 16 (≈ 13.6 µM) | – | 16.24 | – | – | 64 (≈ 54.3 µM) | CC[C@@H]1NC(=O)[C@@H]2CCCN2C(=O)[C@@H](Cc2ccccc2)NC(=O)[C@H](CC(C)C)NC(=O)[C@H](CCCNC(=N)N)NC(=O)[C@H](C(C)C)NC(=O)[C@@H]2CCCN2C(=O)[C@@H](CCCNC(=N)N)NC(=O)[C@H](CC(C)C)NC(=O)[C@H](CCCN)NC1=O [Peptide 16] (cyclo([Abu][Orn]L[dR]PVRL[dF]P)) |
| >256 | – | – | >256 | – | > 256 | > 256 | – | CC(C)C[C@@H]1NC(=O)[C@H](CCCN)NC(=O)[C@H](C(C)C)NC(=O)[C@H](Cc2c[nH]c3ccccc23)NC(=O)[C@@H](Cc2ccccc2)NC(=O)[C@H](CC(C)C)NC(=O)[C@H](CCCN)NC(=O)[C@H](C(C)C)NC(=O)[C@H](Cc2c[nH]c3ccccc23)NC(=O)[C@@H](Cc2ccccc2)NC1=O [Peptide 4] (cyclo(L[dF]WV[Orn]L[dF]WV[Orn])) |
| 16 (≈ 12 µM) | 16 (≈ 12 µM) | 8 (≈ 6.02 µM) | 32 (≈ 24.1 µM) | – | – | – | – | CC(C)C[C@@H]1NC(=O)[C@H](CCCN)NC(=O)[C@H](C(C)C)NC(=O)[C@H](Cc2c[nH]c3ccccc23)NC(=O)[C@@H](Cc2ccccc2)NC(=O)[C@H](CC(C)C)NC(=O)[C@H](CCCN)NC(=O)[C@H](C(C)C)NC(=O)[C@H](Cc2c[nH]c3ccccc23)NC(=O)[C@@H](CCCNC(=N)N)NC1=O [Peptide 11] (cyclo(L[dF]WV[Orn]L[dR]WV[Orn])) |
| 32 (≈ 27.2 µM) | 32 (≈ 27.2 µM) | 16 (≈ 13.6 µM) | – | 16.32 | – | – | 64 (≈ 54.3 µM) | CC[C@@H]1NC(=O)[C@@H]2CCCN2C(=O)[C@@H](CCCNC(=N)N)NC(=O)[C@H](CC(C)C)NC(=O)[C@H](CCCN)NC(=O)[C@H](C(C)C)NC(=O)[C@@H]2CCCN2C(=O)[C@@H](Cc2ccccc2)NC(=O)[C@H](CC(C)C)NC(=O)[C@H](CCCNC(=N)N)NC1=O [Peptide 17] (cyclo([Abu]RL[dF]PV[Orn]L[dR]P)) |
| 16 (≈ 13.9 µM) | 16 (≈ 13.9 µM) | 8 (≈ 6.95 µM) | 32 (≈ 27.8 µM) | – | – | – | – | CC(C)C[C@@H]1NC(=O)[C@H](CCCN)NC(=O)[C@H](C(C)C)NC(=O)[C@@H]2CCCN2C(=O)[C@@H](Cc2ccccc2)NC(=O)[C@H](CC(C)C)NC(=O)[C@H](CCCN)NC(=O)[C@H](C(C)C)NC(=O)[C@@H]2CCCN2C(=O)[C@@H](CCCNC(=N)N)NC1=O [Peptide 9] (cyclo(L[dF]PV[Orn]L[dR]PV[Orn])) |
| 32 (≈ 27.2 µM) | 16 (≈ 13.6 µM) | 4 (≈ 3.39 µM) | 32 (≈ 27.2 µM) | 16.92 | – | – | – | CC(C)(C)[C@@H]1NC(=O)[C@H](CCCN)NC(=O)[C@H](C(C)(C)C)NC(=O)[C@@H]2CCCN2C(=O)[C@@H](Cc2ccccc2)NC(=O)[C@H](C(C)(C)C)NC(=O)[C@H](CCCN)NC(=O)[C@H](C(C)(C)C)NC(=O)[C@@H]2CCCN2C(=O)[C@@H](CCCNC(=N)N)NC1=O [Peptide 7] (cyclo([Orn][Tle][dF]P[Tle][Orn][Tle][dR]P[Tle])) |
| >256 | – | 128 (≈ 101 µM) | >256 | – | > 256 | – | – | CC(C)C[C@@H]1NC(=O)[C@H](CCCN)NC(=O)[C@H](C(C)C)NC(=O)[C@@H]2CCCN2C(=O)[C@@H](Cc2ccccc2)NC(=O)[C@H](CC(C)C)NC(=O)[C@H](CCCN)NC(=O)[C@H](C(C)C)NC(=O)[C@H](Cc2c[nH]c3ccccc23)NC(=O)[C@@H](Cc2c[nH]c3ccccc23)NC1=O [Peptide 3] (cyclo(L[dF]PV[Orn]L[dW]WV[Orn])) |
| 128 (≈ 111 µM) | 32 (≈ 27.7 µM) | 8 (≈ 6.92 µM) | 128 (≈ 111 µM) | – | – | – | – | CC(C)C[C@@H]1NC(=O)[C@H](CCCN)NC(=O)[C@H](C(C)(C)C)NC(=O)[C@@H]2CCCN2C(=O)[C@@H](Cc2ccccc2)NC(=O)[C@H](CC(C)C)NC(=O)[C@H](CCCN)NC(=O)[C@H](C(C)C)NC(=O)[C@@H]2CCCN2C(=O)[C@@H](Cc2ccccc2)NC1=O [Peptide 12] (cyclo(L[dF]P[Tle][Orn]L[dF]PV[Orn])) |

| Compound | MIC K. pneumonia ATCC 33495 [1] [µg/mL] | MIC E. coli ATCC 25922 ([2]; ATCC 25922) [µg/mL] | MIC A. baumannii ATCC 19606 ([3]; ATCC 19606) [µg/mL] | MIC P. aeruginosa ATCC 27853 ([4]; ATCC 27853) [µg/mL] | RP-HPLC retention time tR [5] [min] | MIC E. coli ATCC 25922 [2, 6] [µg/mL] | MIC A. baumannii ATCC 19606 [3, 6] [µg/mL] | MIC P. aeruginosa ATCC 27853 [4, 6] [µg/mL] |
| --- | --- | --- | --- | --- | --- | --- | --- | --- |
| CC(C)C[C@@H]1NC(=O)[C@H](CCCN)NC(=O)[C@H](C(C)C)NC(=O)[C@@H]2CCCN2C(=O)[C@@H](Cc2ccccc2)NC(=O)[C@H](CC(C)C)NC(=O)[C@H](CCCN)NC(=O)[C@H](C(C)C)NC(=O)[C@@H]2CCCN2C(=O)[C@@H](Cc2ccccc2)NC1=O [GS, gramicidin S] (cyclo(V[Orn]L[dF]PV[Orn]L[dF]P)) | 128 (≈ 112 µM) | 32 (≈ 28 µM) | 8 (≈ 7.01 µM) | 128 (≈ 112 µM) | – | – | – | – |
